What was measured:
[1] = test system: KRAS G12C-dependent Ba/F3 cells; experiment: Ba/F3 proliferation assay, KRAS G12C; assay type: cell-based; settings: Mus musculus, BaF3, 72 h, AlamarBlue
How it was run: (§1)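 Viability is measured as AlamarBlue fluorescence in Ba/F3 cells that depend on a transduced mutant KRAS isoform for growth without IL-3. Each treatment is run in technical duplicate, and dose-response curves are fitted.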

[2] = Plasma protein binding assay (PPB), equilibrium dialysis, 10% FCS in PBS; assay type: in vitro ADME; settings: bovine, read-out: PPB 10% FCS (% fu)
How it was run: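 Equilibrium dialysis (5-10 kg/mol cut-off membrane) of 1-10 μmol/L test compound in 10% FCS/PBS against PBS with or without dextran, 3-5 h at 37° C. Compound in each chamber quantified by LC-MS after protein precipitation; fu calculated from Cserum and Cbuffer.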

SK-CO-1 cells = experiment: SK-CO-1 CTG proliferation assay (120 h) (CRC, G12V); assay type: cell-based; settings: Homo sapiens; SK-CO-1 cells (CRC, G12V), CTG 120 h
How it was run: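 SK-CO-1 colorectal cells (KRAS G12V), 500 per well in EMEM + 10% FCS, dosed with compound the day after seeding and grown 120 h at 37 °C. Viability by CellTiter-Glo luminescence as percent of DMSO control; IC50 from four-parameter non-linear regression.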

[3] = Metabolic (microsomal) stability assay, human liver microsomes (HLM); assay type: in vitro ADME; settings: predicted clearance as percent of liver blood flow, 1 μM
How it was run: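 LC-MS/MS tracked parent disappearance at 0, 5, 15, 30 and 60 min in NADPH-initiated incubations with 1 mg/mL human microsomal protein and 1 μM compound at 37°C, pH 7.5. First-order fits gave intrinsic clearance, which was scaled up and reported as % QH. NADPH-free controls were also run.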

[4] = test system: KRAS G12D-dependent Ba/F3 cells; experiment: Ba/F3 proliferation assay, KRAS G12D; assay type: cell-based; settings: Mus musculus, BaF3, 72 h, AlamarBlue
How it was run: as §1

| IC50 [1] [nM] | fraction unbound [2] | IC50 (SK-CO-1 cells) [nM] | HLM QH [3] [%] | IC50 [4] [nM] | Structure (SMILES) |
| --- | --- | --- | --- | --- | --- |
| 910 | 0.37 | 1020 | <24 | 250 | C[C@@H]1CN(c2cc(O[C@@H](C)[C@@H]3CCCN3C)nc(-c3noc4c3CCC[C@@]43CCCc4sc(N)c(C#N)c43)n2)CCN1 [II-161] |
| 283 | 0.09 | 1260 | 40 | 18 | [2H]C([2H])([2H])N1C[C@H](F)C[C@H]1[C@H](C)Oc1cc(N2CCN(C([2H])([2H])[2H])C3(CC3)C2)nc(-c2noc3c2CCC[C@@]32CCCc3sc(N)c(C#N)c32)n1 [II-207] |
| 169 | 0.04 | 263 | 70 | 6 | C[C@H](Oc1nc(-c2noc3c2CCC[C@@]32CCCc3sc(N)c(C#N)c32)nc(N2CCNC3(CC3)C2)c1F)[C@@H]1C[C@@H](F)CN1C [II-155] |
| 3 | 0.07 | 17 | 67 | 16 | CO[C@H]1CCN(C)[C@@H]1[C@H](C)Oc1cc(-n2ccc(C(=O)N(C)C3COC3)n2)nc(-c2noc3c2CCC[C@@]32CCCc3sc(N)c(C#N)c32)n1 [II-199] |
| 6 | 0.02 | 4 | <24 | 28 | C[C@H](Oc1cc(-n2ccc(-c3cn([C@@H]4CCOC4)nn3)n2)nc(-c2noc3c2CCC[C@@]32CCCc3sc(N)c(C#N)c32)n1)[C@@H]1CCCN1C [II-211] |
| 1310 | 0.01 | 2060 | 63 | 112 | C[C@H](Oc1nc(-c2noc3c2CCC[C@@]32CCCc3sc(N)c(C#N)c32)nc(N2CCN(C)C3(CC3)C2)c1Cl)[C@@H]1C[C@@H](F)CN1C [II-176] |
| 1020 | – | 292 | <24 | 2240 | C[C@H]1CNCCCN1c1cc(-c2ccn(C)n2)nc(-c2noc3c2CCC[C@@]32CCCc3sc(N)c(C#N)c32)n1 [II-140] |
| 192 | 0.08 | 880 | 49 | 12 | CO[C@H]1CCN(C)[C@@H]1[C@H](C)Oc1cc(N2CCN(C)C3(CC3)C2)nc(-c2noc3c2CCC[C@@]32CCCc3sc(N)c(C#N)c32)n1 [II-186] |
| 76 | 0.48 | 56 | <24 | 165 | C[C@H](Oc1cc(N2Cc3cnn(C)c3C2)nc(-c2onc3c2CCC[C@@]32CCCc3sc(N)c(C#N)c32)n1)[C@@H]1CCCN1C [I-19] |
| 17 | 0.13 | 121 | <24 | 109 | C[C@H](Oc1cc(-n2cc(-c3cncs3)nn2)nc(-c2noc3c2CCC[C@@]32CCCc3sc(N)c(C#N)c32)n1)[C@@H]1CCCN1C [II-125] |
| 245 | 0.1 | 2120 | 76 | 82 | C[C@H](Oc1cc(-n2cc3c(n2)CNC3)nc(-c2noc3c2CCC[C@@]32CCCc3sc(N)c(C#N)c32)n1)[C@@H]1C[C@@H](F)CN1C [II-154] |
| 11 | 0.23 | 66 | <24 | 92 | C[C@H](Oc1cc(-c2ccn(C[C@H]3CCOC3)n2)nc(-c2noc3c2CCC[C@@]32CCCc3sc(N)c(C#N)c32)n1)[C@@H]1CCCN1C [II-129] |
| 26 | 0.32 | 121 | 33 | 89 | CC(C)N1CCCN(c2cc(-c3ccn(C)n3)nc(-c3noc4c3CCC[C@@]43CCCc4sc(N)c(C#N)c43)n2)[C@@H](C)C1 [II-170] |
| 2200 | – | 2190 | – | 5860 | C[C@H]1CNCCCN1c1cc(-n2ccnc2)nc(-c2noc3c2CCC[C@@]32CCCc3sc(N)c(C#N)c32)n1 [II-142] |
| 232 | 0.23 | 1530 | 32 | 10 | C[C@H](Oc1cc(N2CCN(C)C3(CC3)C2)nc(-c2noc3c2CCC[C@@]32CCCc3sc(N)c(C#N)c32)n1)[C@@H]1CCCN1C [II-171] |
| 6 | 0.03 | 29 | <24 | 45 | C[C@H](Oc1cc(-n2ccc(-c3cnccn3)n2)nc(-c2noc3c2CCC[C@@]32CCCc3sc(N)c(C#N)c32)n1)[C@@H]1CCCN1C [II-130] |

| IC50 [1] [nM] | fraction unbound [2] | IC50 (SK-CO-1 cells) [nM] | HLM QH [3] [%] | IC50 [4] [nM] | Structure (SMILES) |
| --- | --- | --- | --- | --- | --- |
| 2 | 0.05 | 4 | <24 | 10 | C[C@H](Oc1cc(-n2ccc(-c3cn([C@H]4CCOC4)nn3)n2)nc(-c2noc3c2CCC[C@@]32CCCc3sc(N)c(C#N)c32)n1)[C@@H]1CCCN1C [II-212] |
| 3 | 0.07 | 9 | 41 | 18 | CO[C@H]1CCN(C)[C@@H]1[C@H](C)Oc1cc(-n2ccc(C(N)=O)n2)nc(-c2noc3c2CCC[C@@]32CCCc3sc(N)c(C#N)c32)n1 [II-201] |
| 11 | 0.61 | 236 | 48 | 22 | C[C@H](Oc1cc(-n2cncn2)nc(-c2onc3c2CCC[C@@]32CCCc3sc(N)c(C#N)c32)n1)[C@@H]1CCCN1C [I-18] |
| 147 | 0.21 | 131 | 40 | 366 | COc1c(O[C@@H](C)[C@@H]2CCCN2C)nc(-c2noc3c2CCC[C@@]32CCCc3sc(N)c(C#N)c32)nc1-n1ccc(C(N)=O)n1 [II-159] |
| 2 | 0.24 | 4 | 30 | 13 | C[C@H](Oc1cc(-n2ccc(C(=O)N[C@@H]3CCOC3)n2)nc(-c2noc3c2CCC[C@@]32CCCc3sc(N)c(C#N)c32)n1)[C@@H]1CCCN1C [II-192] |
| 135 | 0.04 | 374 | 73 | 24 | C[C@@H]1CN(c2nc(-c3noc4c3CCC[C@@]43CCCc4sc(N)c(C#N)c43)nc(O[C@@H](C)[C@@H]3C[C@@H](F)CN3C)c2F)CC2(CC2)N1 [II-158] |
| 98 | 0.1 | 249 | 60 | 1 | CO[C@H]1CCN(C)[C@@H]1[C@H](C)Oc1cc(N2CCNC3(CC3)C2)nc(-c2noc3c2CCC[C@@]32CCCc3sc(N)c(C#N)c32)n1 [II-184] |
| 10 | 0.31 | 18 | 36 | 99 | C[C@H](Oc1cc(-n2cc(C(=O)N(C)C)nn2)nc(-c2noc3c2CCC[C@@]32CCCc3sc(N)c(C#N)c32)n1)[C@@H]1CCCN1C [II-132] |
| 133 | 0.14 | 457 | 46 | 3 | CO[C@@H]1C[C@@H]([C@H](C)Oc2cc(N3CCNC4(CC4)C3)nc(-c3noc4c3CCC[C@@]43CCCc4sc(N)c(C#N)c43)n2)N(C)C1 [II-187] |
| 1 | 0.01 | 4 | 75 | 9 | CO[C@H]1CCN(C)[C@@H]1[C@H](C)Oc1cc(-n2ccc(C(=O)N[C@@H](C)c3ccccn3)n2)nc(-c2noc3c2CCC[C@@]32CCCc3sc(N)c(C#N)c32)n1 [II-196] |
| 21 | 0.55 | – | 31 | 32 | C[C@H](Oc1cc(-c2cn(C)nn2)nc(-c2onc3c2CCC[C@@]32CCCc3sc(N)c(C#N)c32)n1)[C@@H]1CCCN1C [I-16] |
| 15 | 0.1 | 71 | – | 18 | C[C@H](Oc1cc(-n2cncc3ccnc2-3)nc(-c2onc3c2CCC[C@@]32CCCc3sc(N)c(C#N)c32)n1)[C@@H]1CCCN1C [I-14] |
| 373 | 0.61 | 649 | – | 97 | C[C@H](Oc1cc([C@H]2CCNC2)nc(-c2noc3c2CCC[C@@]32CCCc3sc(N)c(C#N)c32)n1)[C@@H]1CCCN1C [II-163] |
| 107 | – | 316 | 39 | 285 | CC(C)N1CCCN(c2cc(-n3ccnc3)nc(-c3noc4c3CCC[C@@]43CCCc4sc(N)c(C#N)c43)n2)[C@@H](C)C1 [II-169] |
| 930 | 0.08 | – | 38 | 1130 | C[C@H]1CNCCCN1c1nc(-c2onc3c2CCC[C@@]32CCCc3sc(N)c(C#N)c32)cc(C(F)(F)F)n1 [I-15] |
| 305 | 0.02 | 1290 | – | 47 | CCN1CCN(c2cc(O[C@@H](C)[C@@H]3C[C@@H](F)CN3C)nc(-c3noc4c3CCC[C@@]43CCCc4sc(N)c(C#N)c43)n2)CC12CC2 [II-185] |

Source: patent US20240174690A1, “ANNULATED 2-AMINO-3-CYANO THIOPHENES AND DERIVATIVES FOR THE TREATMENT OF CANCER” (BOEHRINGER INGELHEIM INTERNATIONAL GMBH, priority 2021, published 2024)
